Measurements taken from PMC12024474 (RSC Medicinal Chemistry, 2025).
Where two headings read alike, the source gives them in different places. Where a SMILES comes first, the peptide text is derived from it. [ ]: non-standard residue; d: D form. Hmp(2R,3S) = CC[C@H](C)[C@@H](O)C(=O)O; Sta = CC(C)C[C@H](N)[C@@H](O)CC(=O)O; dNMeF = CN[C@H](Cc1ccccc1)C(=O)O; NMeQ = CN[C@@H](CCC(N)=O)C(=O)O

Key:
[1] = test system: CatE; settings: cited from earlier work
[2] = test system: MDA-MB-231 cells; experiment: MTT cell viability assay; format: cell-based, human; settings: MDA-MB-231, 48 h treatment

For CC[C@H](C)[C@H](NC(=O)C[C@H](O)[C@H](CC(C)C)NC(=O)[C@H](CCC(N)=O)N(C)C(=O)[C@H](CC(C)C)NC(=O)[C@H](O)[C@@H](C)CC)C(=O)NCC(=O)N(C)[C@H](Cc1ccccc1)C(=O)N1CCC[C@H]1C(=O)OC [Grassystatin C, grassystatin C] ({Hmp(2R,3S)}-L[NMeQ][Sta]IG[dNMeF]P-OMe), the “preference for CatE compared to CatD” value [1] is given as “about 30 fold” and the “preference for CatE compared to CatD” value ([1]; listed as grassystatin C) is given as > 30 fold.

For “TRAIL: tumor necrosis factor-related apoptosis-inducing ligand”, the “IC50 (cell viability)” value [2] was 25 ng/mL.
